# What was measured:
# Assay type in all cases: physicochemical
# [1] = Solubility in water of the polymorphic modifications
# [2] = Hygroscopic properties: exposure to ambient air, water content by Karl-Fischer titration; conditions: ca. 20° C., ca. 60% rel. humidity
# Protocol: The hygroscopic properties of three different samples of Calcobutrol were determined, one sample was prepared by the method described in Inorganic Chemistry 1997, 36, 6086-6093 (Example 5), one sample was prepared by the method described in WO2011/054827A1 (Example 6), and one sample was prepared by the method according to the present invention (Example 2).
# 2 g of each sample were exposed to ambient air (ca. 20° C., ca. 60% rel. humidity). The water content was measured by means of Karl-Fischer-Titration immediately after initial exposure (t=0), three hours (t=3 h), seven hours (t=7 h), and thirty one hours (t=31 h) after initial exposure.
# [3] = Storage stability and hygroscopicity of the polymorphic forms; conditions: solid
Structure (SMILES),Solubility in water [1] [g/L],solubility in water (appearance) [1],"weight-% water t = 0 ([2]; 2 g exposed to ambient air, immediately after initial exposure) [%]","weight-% water t = 7 h ([2]; ambient air, seven hours after initial exposure) [%]","weight-% water t = 31 h ([2]; ambient air, thirty one hours after initial exposure) [%]","weight-% water t = 3 h ([2]; ambient air, three hours after initial exposure) [%]",storage stability [3],storage stability ([3]; listed as calcobutrol of modification A),hygroscopicity [3]
"O=C([O-])CN1CCN(CC(=O)[O-])CCN(C(CO)C(O)CO)CCN(CC(=O)O)CC1.[Ca+2] (stereo not drawn) [Modification A, calcium complex of dihydroxy-hydroxy-methylpropyl-tetraazacyclododecane-triacetic acid (calcobutrol)]",>500,colourlessly soluble in water,3.0,4.3,4.3,4.5,good storage stability,storage-stable,–
"O=C([O-])CN1CCN(CC(=O)[O-])CCN(C(CO)C(O)CO)CCN(CC(=O)O)CC1.[Ca+2] (stereo not drawn) [Modification B, calcium complex of dihydroxy-hydroxy-methylpropyl-tetraazacyclododecane-triacetic acid (calcobutrol)]",–,–,–,–,–,–,–,–,to a large extent tend to be hygroscopic
